{
  "source": "patent EP4527379A1",
  "about": "“LIPIDS CONTAINING AN OLIGOGLYCEROL GROUP” (Thermosome GmbH, priority 2023, dated 2025)",
  "key": {"[1]": {"assay": "Indicative storage stability studies using HPLC/CAD", "format": "physicochemical", "description": "The batch was investigated in indicative storage stability studies using HPLC/CAD. CLG2 is stable in its powder form for at least 1 year when stored at -20°C. In contrast to NLG2, CLG2 could also be stored in organic solvents (e.g., chloroform) at temperature ranges from -20 to 2-8°C for at least 9 months."}, "[2]": {"assay": "Solubility and chemical stability in organic solvents", "format": "physicochemical", "description": "CLG2 is readily soluble in chloroform as a clear solution with at least 10 mg/ml."}, "[3]": {"conditions": "LNP formulations with the cationizable lipid (Carrasco et al. 2021); cited from earlier work"}},
  "data": [
    {"smiles": "CCCCCCCCCCCCCCCC(=O)OCC(C[N+](C)(C)CC(O)COCC(O)CO)OC(=O)CCCCCCCCCCCCCCC", "note": "(centres unmarked) [CLG2]", "values": [
      {"measurement": "could be stored in organic solvents", "setting": "[1]; organic solvents (e.g., chloroform), -20 to 2-8°C", "result": "at least 9 months"},
      {"measurement": "stable in its powder form", "setting": "[1]; powder, stored at -20°C", "result": "at least 1 year"},
      {"measurement": "solubility", "setting": "[2]; chloroform, organic solvent or mixture, read-out: soluble in chloroform as a clear solution", "result": "≥ 10000", "unit": "µg/mL"},
      {"measurement": "decomposition in ethanol", "setting": "[2]; ethanol, compared with methanol and isopropanol", "result": "less pronounced"}
    ]},
    {"smiles": "CCCCC/C=C\\C/C=C\\CCCCCCCCC(CCCCCCCC/C=C\\C/C=C\\CCCCC)OC(=O)CCCN(C)C", "note": "[DLin-MC3-DMA]", "values": [
      {"measurement": "pKa", "setting": "[3]", "result": 6.57}
    ]}
  ]
}
